Consider 17 compounds from ChEMBL document CHEMBL5500342, “Rational molecular design converting fascaplysin derivatives to potent broad-spectrum inhibitors against bacterial pathogens via targeting FtsZ” (Eur J Med Chem, 2024).

Assay [1] deals with Staphylococcus aureus. The experiment in a line: Antibacterial activity against methicillin-resistant Staphylococcus aureus ATCC43300 assessed as inhibition of bacterial growth incubated for 18 hrs by CLSI protocol based microbroth dilution method. Format: functional.
For assay [2], the system named is Escherichia coli. The experiment in a line: Bactericidal activity against penicillin-susceptible Escherichia coli ATCC25922 incubated for 24 hrs by CLSI protocol based microbroth dilution method. Format: functional. Background: In broth dilution the organism is exposed to a series of concentrations in liquid medium.
Assay [3] concerns Escherichia coli. The experiment in a line: Antibacterial activity against penicillin-susceptible Escherichia coli ATCC25922 assessed as inhibition of bacterial growth incubated for 18 hrs by CLSI protocol based microbroth dilution method. Format: functional.
Assay [4] has as its system Staphylococcus aureus. Put plainly: Selectivity ratio of MBC for bactericidal activity against methicillin-resistant Staphylococcus aureus ATCC43300 to MIC for antibacterial activity against methicillin-resistant Staphylococcus aureus ATCC43300. Format: functional.
The test system of assay [5] is Staphylococcus aureus. Put plainly: Bactericidal activity against methicillin-resistant Staphylococcus aureus ATCC43300 incubated for 24 hrs by CLSI protocol based microbroth dilution method. Format: functional.
Assay [6] in a line: Selectivity ratio of MBC for bactericidal activity against penicillin-susceptible Escherichia coli ATCC25922 to MIC for antibacterial activity against penicillin-susceptible Escherichia coli ATCC25922. Format: functional.
A further assay deals with Salmonella enteritidis. The experiment in a line: Antibacterial activity against Salmonella enteritidis BNCC281091 assessed as inhibition of bacterial growth incubated for 18 hrs by CLSI protocol based microbroth dilution method. To be noted: Salmonella enterica. Format: functional, Salmonella enterica subsp. enterica serovar Enteritidis.
In a further assay the test system is Pseudomonas aeruginosa. Put plainly: Antibacterial activity against Pseudomonas aeruginosa BNCC337940 assessed as inhibition of bacterial growth incubated for 18 hrs by CLSI protocol based microbroth dilution method. Format: functional.
For the next assay, the system named is Bacillus subtilis. The experiment in a line: Antibacterial activity against Bacillus subtilis BNCC336690 assessed as inhibition of bacterial growth incubated for 18 hrs by CLSI protocol based microbroth dilution method. Format: functional.
For assay [7], the system named is Staphylococcus aureus. The experiment in a line: Antibacterial activity against methicillin-resistant Staphylococcus aureus ATCC43300. Format: functional.
A further assay concerns Streptococcus pneumoniae. The experiment in a line: Antibacterial activity against Streptococcus pneumoniae ATCC49619 assessed as inhibition of bacterial growth incubated for 18 hrs by CLSI protocol based microbroth dilution method. Format: functional.
The test system of assay [8] is Escherichia coli. The experiment in a line: Antibacterial activity against penicillin-susceptible Escherichia coli ATCC25922. Format: functional.

Converted amounts (≈) assume the structure as drawn.

`O=C1c2ccccc2-[n+]2ccc3c([nH]c4ccccc43)c21` [FASCAPLYSIN]: the minimal inhibitory concentration (MIC) in the assay with Staphylococcus aureus [1] amounted to 0.78 µg/mL; in the assay on Escherichia coli [3], 12.5 µg/mL. Besides, the MBC came to 25 µg/mL against Escherichia coli [2] and 1.56 µg/mL against Staphylococcus aureus [5]. Also, the Selectivity ratio (in the assay on Staphylococcus aureus [4]; in assay [6]) was 2 throughout.
As for `COc1cccc(-c2ccc3[nH]c4c5[n+](ccc4c3c2)-c2ccccc2C5=O)c1.[Cl-]`, the minimal inhibitory concentration (MIC) in the assay with Salmonella enteritidis is greater than 200 µg/mL; in the assay with Pseudomonas aeruginosa it was greater than 200 µg/mL; in the assay on Bacillus subtilis, 0.195 µg/mL; against Staphylococcus aureus [7] it was 0.39 µg/mL; in the assay with Streptococcus pneumoniae it was 0.39 µg/mL; with Escherichia coli [8], 12.5 µg/mL.
For the compound `O=C1c2ccccc2-[n+]2ccc3c([nH]c4ccc(-c5cccc(Cl)c5)cc43)c21.[Cl-]`, the MIC was greater than 200 µg/mL in the assay with Salmonella enteritidis; greater than 200 µg/mL in the assay on Pseudomonas aeruginosa; 0.195 µg/mL with Bacillus subtilis; 0.39 µg/mL with Staphylococcus aureus [1]; 0.195 µg/mL in the assay with Streptococcus pneumoniae; 25 µg/mL with Escherichia coli [3].
For `Cc1ccc(-c2ccc3[nH]c4c5[n+](ccc4c3c2)-c2ccccc2C5=O)cc1.[Cl-]`, the minimum inhibitory concentration (MIC) with Salmonella enteritidis was greater than 200 µg/mL; with Pseudomonas aeruginosa it was greater than 200 µg/mL; in the assay with Bacillus subtilis, 0.195 µg/mL; against Staphylococcus aureus [7], 0.39 µg/mL; with Streptococcus pneumoniae it was 0.195 µg/mL; against Escherichia coli [8], 12.5 µg/mL.
For the compound `O=C1c2ccccc2-[n+]2ccc3c([nH]c4ccc(-c5ccc(Cl)cc5)cc43)c21.[Cl-]`, the minimum inhibitory concentration (MIC) was greater than 200 µg/mL with Salmonella enteritidis; greater than 200 µg/mL in the assay on Pseudomonas aeruginosa; 0.195 µg/mL with Bacillus subtilis; 1.56 µg/mL with Staphylococcus aureus [1]; 0.39 µg/mL with Streptococcus pneumoniae; greater than 200 µg/mL in the assay on Escherichia coli [3].
Take `CCCc1ccc(-c2ccc3[nH]c4c5[n+](ccc4c3c2)-c2ccccc2C5=O)cc1.[Cl-]`: the MIC in the assay with Salmonella enteritidis was greater than 200 µg/mL; in the assay on Pseudomonas aeruginosa, greater than 200 µg/mL; with Bacillus subtilis, 0.195 µg/mL; in the assay with Staphylococcus aureus [1], 1.56 µg/mL; with Streptococcus pneumoniae, 0.195 µg/mL; in the assay on Escherichia coli [3] it was greater than 200 µg/mL.
Consider `O=C1c2ccccc2-[n+]2ccc3c([nH]c4ccc(-c5ccc(F)cc5F)cc43)c21.[Cl-]`, for which the MIC was greater than 200 µg/mL with Salmonella enteritidis; greater than 200 µg/mL in the assay with Pseudomonas aeruginosa; 0.195 µg/mL in the assay on Bacillus subtilis; 0.195 µg/mL in the assay with Staphylococcus aureus [7]; 0.195 µg/mL in the assay on Streptococcus pneumoniae; 1.56 µg/mL in the assay on Escherichia coli [8].
On to `Cc1ccc(-c2ccc3[nH]c4c5[n+](ccc4c3c2)-c2ccccc2C5=O)cc1C.[Cl-]`, for which the minimal inhibitory concentration (MIC) with Salmonella enteritidis was greater than 200 µg/mL; with Pseudomonas aeruginosa it was greater than 200 µg/mL; with Bacillus subtilis it was 0.195 µg/mL; in the assay with Staphylococcus aureus [1], 6.25 µg/mL; with Streptococcus pneumoniae, 0.78 µg/mL; with Escherichia coli [3], greater than 200 µg/mL.
Turning to `COc1ccc(-c2ccc3[nH]c4c5[n+](ccc4c3c2)-c2ccccc2C5=O)cc1.[Cl-]`, the minimal inhibitory concentration (MIC) was greater than 200 µg/mL in the assay on Salmonella enteritidis; greater than 200 µg/mL in the assay with Pseudomonas aeruginosa; 0.195 µg/mL in the assay on Bacillus subtilis; 0.78 µg/mL against Staphylococcus aureus [7]; 0.195 µg/mL in the assay with Streptococcus pneumoniae; 25 µg/mL in the assay on Escherichia coli [8].
Take `O=C1c2ccccc2-[n+]2ccc3c([nH]c4ccc(-c5ccc(F)cc5)cc43)c21.[Cl-]`: the minimal inhibitory concentration (MIC) in the assay with Salmonella enteritidis is greater than 200 µg/mL; with Pseudomonas aeruginosa, greater than 200 µg/mL; in the assay on Bacillus subtilis it was 0.195 µg/mL; with Staphylococcus aureus [7], 1.56 µg/mL; with Streptococcus pneumoniae it was 0.195 µg/mL; in the assay on Escherichia coli [8] it was 6.25 µg/mL.
As to `CCc1ccc(-c2ccc3[nH]c4c5[n+](ccc4c3c2)-c2ccccc2C5=O)cc1.[Cl-]`, the minimal inhibitory concentration (MIC) is greater than 200 µg/mL in the assay with Salmonella enteritidis; greater than 200 µg/mL in the assay with Pseudomonas aeruginosa; 0.195 µg/mL in the assay with Bacillus subtilis; 1.56 µg/mL in the assay on Staphylococcus aureus [1]; 0.195 µg/mL in the assay with Streptococcus pneumoniae; greater than 200 µg/mL in the assay on Escherichia coli [3].
Take `O=C1c2ccccc2-[n+]2ccc3c([nH]c4ccc(-c5ccccc5)cc43)c21.[Cl-]`: the MIC was greater than 200 µg/mL in the assay on Salmonella enteritidis; 200 µg/mL in the assay on Pseudomonas aeruginosa; 0.195 µg/mL in the assay on Bacillus subtilis; 0.78 µg/mL against Staphylococcus aureus [7]; 0.195 µg/mL in the assay with Streptococcus pneumoniae; 3.12 µg/mL against Escherichia coli [8].
On to `O=C1c2ccccc2-[n+]2ccc3c([nH]c4ccc(-c5cc(F)cc(F)c5)cc43)c21.[Cl-]`, for which the MIC in the assay on Salmonella enteritidis is greater than 200 µg/mL; in the assay on Pseudomonas aeruginosa, greater than 200 µg/mL; with Bacillus subtilis, 0.195 µg/mL; in the assay with Staphylococcus aureus [1] it was 3.12 µg/mL; with Streptococcus pneumoniae it was 0.195 µg/mL; in the assay with Escherichia coli [3], 12.5 µg/mL.
For the compound `CCCCc1ccc(-c2ccc3[nH]c4c5[n+](ccc4c3c2)-c2ccccc2C5=O)cc1.[Cl-]`, the MIC in the assay on Salmonella enteritidis was greater than 200 µg/mL; in the assay on Pseudomonas aeruginosa it was greater than 200 µg/mL; with Bacillus subtilis, 1.56 µg/mL; in the assay with Staphylococcus aureus [1], 6.25 µg/mL; in the assay with Streptococcus pneumoniae, 0.78 µg/mL; in the assay on Escherichia coli [3] it was greater than 200 µg/mL.
Regarding `Cc1cccc(-c2ccc3[nH]c4c5[n+](ccc4c3c2)-c2ccccc2C5=O)c1.[Cl-]`, the MIC is greater than 200 µg/mL with Salmonella enteritidis; greater than 200 µg/mL in the assay on Pseudomonas aeruginosa; 0.195 µg/mL with Bacillus subtilis; 0.39 µg/mL in the assay on Staphylococcus aureus [1]; 0.195 µg/mL with Streptococcus pneumoniae; greater than 200 µg/mL in the assay with Escherichia coli [3].
`CN[C@H](CC(C)C)C(=O)N[C@H]1C(=O)N[C@@H](CC(N)=O)C(=O)N[C@H]2C(=O)N[C@H]3C(=O)N[C@H](C(=O)N[C@H](C(=O)O)c4cc(O)cc(O)c4-c4cc3ccc4O)[C@H](O)c3ccc(c(Cl)c3)Oc3cc2cc(c3O[C@@H]2O[C@H](CO)[C@@H](O)[C@H](O)[C@H]2O[C@H]2C[C@](C)(N)[C@H](O)[C@H](C)O2)Oc2ccc(cc2Cl)[C@H]1O` [VANCOMYCIN]: the minimal inhibitory concentration (MIC) in the assay with Bacillus subtilis is 0.39 µg/mL (≈ 0.269 µM); in the assay on Streptococcus pneumoniae it was 1.56 µg/mL (≈ 1.08 µM). Further, the MBC is 3.12 µg/mL (≈ 2.16 µM) in the assay with Escherichia coli [2] and 1 µg/mL (≈ 0.69 µM) against Staphylococcus aureus [5].
Regarding `O=C1c2ccccc2-[n+]2ccc3c([nH]c4ccc(-c5ccc(C(F)(F)F)cc5)cc43)c21.[Cl-]`, the MIC in the assay with Salmonella enteritidis is greater than 200 µg/mL; in the assay with Pseudomonas aeruginosa, greater than 200 µg/mL; in the assay on Bacillus subtilis it was 0.195 µg/mL; against Staphylococcus aureus [7], 0.39 µg/mL; with Streptococcus pneumoniae it was 1.56 µg/mL; against Escherichia coli [8] it was 1.56 µg/mL.

The MIC is the lowest concentration that inhibits growth of the organism. By MBC is commonly meant the smallest concentration meeting the test's criterion for killing.
